Source: US8710252B2, “Hepodxilin analog enantiomers” (priority 2006, dated 2014)
Entries after “also recorded” stand apart in the source; their conditions may differ.

Target: T1, Ga14-DBD-PPAR gamma-LBD fusion protein (Homo sapiens, UniProt P37231)
T1 construct: expressed in transfected cells; host or cells: mouse embryonic fibroblasts (MEFs) or ME3 cells
T1 sequence (P37231 238-503 limits assumed): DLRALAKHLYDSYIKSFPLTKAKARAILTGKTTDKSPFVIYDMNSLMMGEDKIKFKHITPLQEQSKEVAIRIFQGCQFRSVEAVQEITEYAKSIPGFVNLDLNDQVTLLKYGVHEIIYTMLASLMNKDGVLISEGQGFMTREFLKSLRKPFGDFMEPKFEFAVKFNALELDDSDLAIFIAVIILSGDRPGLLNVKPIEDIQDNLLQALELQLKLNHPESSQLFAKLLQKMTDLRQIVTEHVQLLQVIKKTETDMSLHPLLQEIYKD
Assay: PPAR gamma transactivation assay (Gal4-PPAR gamma LBD / UASx4-TK-luc reporter)
Assay type: cell-based
Description: The UASx4-TK-luc reporter construct (where UAS refers to “upstream activator sequence”) contains four Ga14-responsive elements. The plasmid Ga14-PPAR gammaLBD encodes a Ga14-DBD-PPAR gamma-LBD fusion protein (i.e. the DNA-binding domain, DBD, of Ga14 fused to the ligand-binding domain, LBD, of PPAR gamma) capable of transactivating the UASx4-TK-luc reporter plasmid by binding to the UAS. The CMV-beta-galactosidase plasmid (where CMV is cytomegalovirus) was used for normalization of experimental values.
The cells were replated, typically in 24 well plates, so that at the time of transfection the cells were 50-70% confluent.
Briefly, per well in a 24 well plate, UASx4TKIuc (0.2 microg) Ga14-PPAR gammaLBD (or pM-hPPAR gamma-LBD; 0.1 microg) and CMV-beta-galactosidase (0.05 microg) in 30 μL DMEM (free of serum and antibiotics) was mixed with 30 microL DMEM (free of serum and antibiotics) containing 1 microL metafectenein. The mixture was incubated at room temperature for 20 min to allow formation of nucleic acid-lipid complexes and then approximately 60 micros was added to each well containing the 50-70% confluent cells. […] Cells were harvested after 12-24 hours and luciferase and beta-galactosidase activities were measured according to standard protocols.
Each experiment was carried out with triplicate samples with 0.1, 1 or 10 microM racemate or purified enantiomer.

| Structure (SMILES) | PPAR Activation as % of positive control (Avandia) (Experiment 1, 0.1 microM) | PPAR Activation as % of positive control (Avandia) (Experiment 1, 1 microM) | PPAR Activation as % of positive control (Avandia) (Experiment 1, 10 microM) | PPAR Activation as % of positive control (Avandia) (Experiment 2, 0.1 microM) | PPAR Activation as % of positive control (Avandia) (Experiment 2, 1 microM) | PPAR Activation as % of positive control (Avandia) (Experiment 2, 10 microM) | PPAR Activation as % of positive control (Avandia) (Experiment 3, 0.1 microM) | PPAR Activation as % of positive control (Avandia) (Experiment 3, 1 microM) | PPAR Activation as % of positive control (Avandia) (Experiment 3, 10 microM) | PPAR gamma transactivation, result in words | PPAR Activation as % of positive control (Avandia) (10 microM racemate, Table 3) |
| --- | --- | --- | --- | --- | --- | --- | --- | --- | --- | --- | --- |
| CCCCC/C=C\CC1CC1/C=C/C(O)C/C=C\CCCC(=O)OC (stereo not drawn) [Compound E, 8R-hydroxy-11S,12S-cyclopropyl-eicosa-5Z,9E,14Z-trienoic acid methyl ester] | 5 +/− 1 % of positive control (Avandia) | 11 +/− 1 % of positive control (Avandia) | 55 +/− 8 % of positive control (Avandia) | 4 +/− 1 % of positive control (Avandia) | 4 +/− 1 % of positive control (Avandia) | 14 +/− 2 % of positive control (Avandia) | 7 +/− 3 % of positive control (Avandia) | 11 +/− 2 % of positive control (Avandia) | 27 +/− 7 % of positive control (Avandia) | – | – |
| CCCCC/C=C\C[C@@H]1C[C@H]1/C=C/[C@@H](O)C/C=C\CCCC(=O)OC [Compound F, 8S-hydroxy-11R,12R-cyclopropyl-eicosa-5Z,9E,14Z-trienoic acid methyl ester] | 7 +/− 1 % of positive control (Avandia) | 12 +/− 7 % of positive control (Avandia) | 92 +/− 7 % of positive control (Avandia) | 5 +/− 1 % of positive control (Avandia) | 5 +/− 5 % of positive control (Avandia) | 69 +/− 12 % of positive control (Avandia) | 8 +/− 2 % of positive control (Avandia) | 18 +/− 5 % of positive control (Avandia) | 78 +/− 34 % of positive control (Avandia) | significantly more activity than Compound E or the racemic mixture of PBT-1; also recorded: significantly better PPAR gamma transactivation activity; also recorded: higher fold PPAR gamma transactivation than compound E or the PBT-1 racemic mixture | – |
| CCCCC/C=C\CC1CC1/C=C/C(O)C/C=C\CCCC(=O)OC (stereo not drawn) [PBT-1, 8-hydroxy-11,12-cyclopropyl-eicosa-5Z,9E,14Z-trienoic acid methyl ester, reference compound] | 17 +/− 2 % of positive control (Avandia) | 57 +/− 6 % of positive control (Avandia) | – | 7 +/− 1 % of positive control (Avandia) | 35 +/− 5 % of positive control (Avandia) | – | 6 +/− 2 % of positive control (Avandia) | 34 +/− 2 % of positive control (Avandia) | 58 +/− 12 % of positive control (Avandia) | – | 21 +/− 2 % of positive control (Avandia) |
| CCCCC/C=C\CC1CC1/C=C/C(O)C/C=C\CCCC(=O)O (stereo not drawn) [PBT-01, 8-hydroxy-11,12-cyclopropyl-eicosa-5Z,9E,14Z-trienoic acid, reference compound] | – | – | – | – | – | – | – | – | – | active | 16 +/− 4 % of positive control (Avandia) |
| CCCCC/C=C\CC1CC1/C=C/C(O)C/C=C\CCCC(=O)OC (stereo not drawn) [PBT-2, 8-hydroxy-11,12-cyclopropyl-eicosa-5Z,9E,14Z-trienoic acid methyl ester, reference compound] | – | – | – | – | – | – | – | – | – | – | 27 +/− 5 % of positive control (Avandia) |
